Results on one compound are retold here after patent publication US20100143462A1, “NEW CARBAMAZEPHINE FORMULATIONS HAVING INPROVED SOLUBILITY” (NUTRALEASE LTD., priority 2004, published 2010).

The conditions of series [1]: following a single oral dose; cited from earlier work.
Series [2] can be described thus: Solubilization capacity of microemulsion / concentrate for Carbamazepine. In kind it is physicochemical. The settings on record: 50 wt % aqueous phase (water:PG 1:1), dilution line 7:3, D-limonene:ethanol 1:1, FIG. 2.
Protocol: When solubilizing a drug in a microemulsion system, the solubilization capacity should be characterized. […] For the 7:3 dilution line (FIG. 2), the 5 gr oil phase concentrate comprises 0.75 gr of D-limonene, 0.75 gr EtOH (each being 15 wt %), and 3.5 gr Tween 60 (70 wt %). The 5 gr oil concentrate is then diluted in an aqueous phase of water:propylene glycol (1:1). For the 8:2 dilution line (FIG. 3) the 5 gr oil phase concentrate comprises 0.5 gr of D-limonene, 0.5 gr EtOH (each being 10 wt %), and 4 gr Tween 60 (80 wt %). The 5 gr oil concentrate is then diluted in an aqueous phase of water:propylene glycol (1:1). For the 9:1 dilution line (FIG. 4) the 5 gr oil phase concentrate comprises 0.25 gr of D-limonene, 0.25 gr EtOH (each being 5 wt %), and 4 gr Tween 60 (90 wt %). The 5 gr oil concentrate is then diluted in an aqueous phase of water:propylene glycol (1:1).
Preparations of the microemulsions and microemulsion concentrate were done in the following manner. The surfactant and the oil phase were mixed at the appropriate ratio, 7:3, 8:2 and 9:1 respectively, to form the concentrate. The solubilization of the drug in the concentrate was determined by solubilizing it to form clear solutions, until the maximal amount was reached. […]

Molecules are shown by their SMILES.

Take `NC(=O)N1c2ccccc2C=Cc2ccccc21` [Carbamazepine, 5H-Dibenz(b,f)azepine-5-carboxamide]: in series [1], the “elimination half-life of unchanged Carbamazepine in the plasma” value was “approximately 36 hours”. Further, the “solubilization capacity of microemulsion (solubilized Carbamazepine)” value in series [2] is on record as 3.76%.
